Measurements taken from US12084472B2 (Ardelyx, Inc., priority 2015, dated 2024).

Target: T1, human TGR5 (Homo sapiens, UniProt Q8TDU6)
T1 construct: expressed in transfected cells; host or cells: HEK293
T1 sequence (Q8TDU6 1-330): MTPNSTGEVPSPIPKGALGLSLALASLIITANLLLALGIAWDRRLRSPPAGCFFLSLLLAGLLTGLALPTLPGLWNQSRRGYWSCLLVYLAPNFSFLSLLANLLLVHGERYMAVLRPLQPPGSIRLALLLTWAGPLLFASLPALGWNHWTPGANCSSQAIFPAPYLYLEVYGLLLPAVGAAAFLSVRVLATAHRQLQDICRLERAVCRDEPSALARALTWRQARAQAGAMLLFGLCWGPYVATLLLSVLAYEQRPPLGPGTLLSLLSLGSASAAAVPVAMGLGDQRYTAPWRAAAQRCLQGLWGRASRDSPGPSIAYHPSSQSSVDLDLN
Assay: Cell-based TGR5 assay (cAMP generation, HTRF)
Conditions: HEK293 cells stably transfected with human TGR5; cAMP by HTRF; 30 minutes at 37° C.; read-out: pEC50 Human TGR5 (converted)
Method in brief: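 First, compounds in 3-fold serial dilution were placed in HBSS with 10 mM HEPES pH 7.4 and 0.5 mM IBMX. Next, human TGR5-expressing HEK293 cells were added and incubated 30 min at 37° C. Finally, cAMP was detected by HTRF and pEC50 derived by logistic fitting.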

EC50 [nM]	Compound
1260 to 10000	Clc1ccc(Cl)c(CNC2(c3cnccc3-c3ccccc3Cl)CC2)c1 [Compound I-16, 1-[4-(2-chlorophenyl)pyridin-3-yl]-N-[(2,5-dichlorophenyl)methyl]cyclopropan-1-amine]
< 100	CC(CCCCC(=O)O)c1ccc(Cl)c(CNC2(c3cnccc3-c3ccccc3OC3CC3)CC2)c1 (centres unmarked) [Compound I-249, 6-{4-chloro-3-[({1-[4-(2-cyclopropoxyphenyl)pyridin-3-yl]cyclopropyl}amino)methyl]phenyl}heptanoic acid]
< 100	Cc1cc(COC2(c3cnccc3-c3ccccc3OC3CC3)CC2)c(Cl)cc1CCCCNC(=O)[C@@H](O)[C@@H](O)[C@H](O)[C@@H](O)CO (stereo in doubt) [Compound I-172, (2S,3S,4R,5S)-N-{4-[5-chloro-4-({1-[4-(2-cyclopropoxyphenyl)pyridin-3-yl]cyclopropoxy)methyl)-2-methylphenyl]butyl}-2,3,4,5,6-pentahydroxyhexanamide]
< 100	O=C(NCCCCCS(=O)(=O)c1ccc(Cl)c(COC2(c3cnccc3-c3ccccc3OC3CC3)CC2)c1)[C@@H](O)[C@@H](O)[C@H](O)[C@@H](O)CO [Compound I-608, (2S,3S,4R,5S)-N-{5-[4-chloro-3-({1-[4-(2-cyclopropoxyphenyl)pyridin-3-yl]cyclopropoxy}methyl)benzenesulfonyl]pentyl}-2,3,4,5,6-pentahydroxyhexanamide]
126 to 1000	Clc1ccc(Cl)c(CNC2(c3cnccc3-c3ccccc3)CC2)c1 [Compound I-14, N-[(2,5-dichlorophenyl)methyl]-1-(4-phenylpyridin-3-yl)cyclopropan-1-amine]
1260 to 10000	Cc1ccc(CCCCC(=O)N(C)C[C@H](O)[C@@H](O)[C@H](O)[C@H](O)CO)nc1COC1(c2cnccc2-c2ccccc2OC2CC2)CC1 [Compound I-709]
126 to 1000	CS(=O)(=O)CCCN(CCCSc1ccc(Cl)c(COC2(c3cnccc3-c3ccccc3OC3CC3)CC2)c1)C(=O)[C@@H](O)[C@@H](O)[C@H](O)[C@@H](O)CO [Compound I-558, (2S,3S,4R,5S)-N-(3-{[4-chloro-3-({1-[4-(2-cyclopropoxyphenyl)pyridin-3-yl]cyclopropoxy}methyl)phenyl]sulfanyl}propyl)-2,3,4,5,6-pentahydroxy-N-(3-methanesulfonylpropyl) hexanamide]
< 100	CN(C[C@H](O)[C@@H](O)[C@H](O)[C@H](O)CO)C(=O)CCSc1ccc(Cl)c(COC2(c3cnccc3-c3ccccc3OC3CC3)CC2)c1 [Compound I-677, 3-{[4-chloro-3-({1-[4-(2-cyclopropoxyphenyl)pyridin-3-yl]cyclopropoxy}methyl)phenyl]sulfanyl}-N-methyl-N-[(2S,3R,4R,5R)-2,3,4,5,6-pentahydroxyhexyl]propanamide]
126 to 1000	O=C(NC[C@H](O)[C@@H](O)[C@H](O)[C@H](O)CO)NC1CC2(C1)CN(S(=O)(=O)c1ccc(Cl)c(COC3(c4cnccc4-c4ccccc4OC4CC4)CC3)c1)C2 [Compound I-430, 1-{2-[4-chloro-3-({1-[4-(2-cyclopropoxyphenyl)pyridin-3-yl]cyclopropoxy}methyl)benzenesulfonyl]-2-azaspiro[3.3]heptan-6-yl}-3-[(2S,3R,4R,5R)-2,3,4,5,6-pentahydroxyhexyl]urea]
126 to 1000	CC(OCc1cc(Cl)ccc1Cl)c1cnccc1-c1ccccc1OC1CC1 (centres unmarked) [Compound I-745, 4-(2-cyclopropoxyphenyl)-3-(1-((2,5-dichlorobenzyl)oxy)ethyl)pyridine]

Second part, the compound before the results:

Compound	EC50 [nM]
CN(C)S(=O)(=O)c1ccc(Cl)c(COC2(c3cnccc3-c3ccccc3OC3CC3)CC2)c1 [Compound I-393, 4-chloro-3-([1-[4-(2-cyclopropoxyphenyl)pyridin-3-yl]cyclopropoxy]methyl)-N,N-dimethylbenzene-1-sulfonamide]	< 100
O=C([C@@H](O)[C@@H](O)[C@H](O)[C@@H](O)CO)N(CCCCSc1ccc(Cl)c(COC2(c3cnccc3-c3ccccc3OC3CC3)CC2)c1)C1CCOCC1 [Compound I-514, (2S,3S,4R,5S)-N-(4-{[4-chloro-3-({1-[4-(2-cyclopropoxyphenyl)pyridin-3-yl]cyclopropoxy}methyl)phenyl]sulfanyl}butyl)-2,3,4,5,6-pentahydroxy-N-(oxan-4-yl)hexanamide]	< 100
O=C(CCCCc1cc(Cl)c(COC2(c3cnccc3-c3ccccc3OC3CC3)CC2)cc1Cl)NCC1O[C@H](CO)[C@@H](O)[C@H](O)[C@H]1O (stereo partly drawn) [Compound I-104, 5-[2,5-dichloro-4-({1-[4-(2-cyclopropoxyphenyl)pyridin-3-yl]cyclopropoxy}methyl)phenyl]-N-{[(3R,4R,5S,6R)-3,4,5-trihydroxy-6-(hydroxymethyl)oxan-2-yl]methyl}pentanamide]	< 100
CCN(CCOCCNC(=O)N[C@@H](CO)[C@@H](O)[C@H](O)[C@H](O)CO)S(=O)(=O)c1ccc(Cl)c(COC2(c3cnccc3-c3ccccc3OC3CC3)CC2)c1 [Compound I-415, 1-(2-{2-[N-ethyl4-chloro-3-({1-[4-(2-cyclopropoxyphenyl)pyridin-3-yl]cyclopropoxy}methyl)benzenesulfonamido]ethoxy}ethyl)-3-[(2S,3R,4S,5R)-1,3,4,5,6-pentahydroxyhexan-2-yl]urea]	< 100
CC(CCCC(=O)N(CCCS(C)(=O)=O)C[C@H](O)[C@@H](O)[C@H](O)[C@H](O)CO)c1ccc(Cl)c(CNC2(c3cnccc3-c3ccccc3OC3CC3)CC2)c1 (stereo partly drawn) [Compound I-347, 5-{4-chloro-3-[({1-[4-(2-cyclopropoxyphenyl)pyridin-3-yl]cyclopropyl}amino)methyl]phenyl}-N-(3-methanesulfonylpropyl)-N-[(2S,3R,4R,5R)-2,3,4,5,6-pentahydroxyhexyl]hexanamide]	< 100
C[C@H](O)CN(CCCCc1cc(Cl)c(COC2(c3cnccc3-c3ccccc3OC3CC3)CC2)cc1Cl)C(=O)[C@@H](O)[C@@H](O)[C@H](O)[C@@H](O)CO [Compound I-215, (2S,3S,4R,5S)-N-{4-[2,5-dichloro-4-({1-[4-(2-cyclopropoxyphenyl)pyridin-3-yl]cyclopropoxy}methyl)phenyl]butyl}-2,3,4,5,6-pentahydroxy-N-[(2S)-2-hydroxypropyl]hexanamide]	< 100
Cc1cc(COC2(c3cnccc3-c3ccccc3OC3CC3)CC2)c(Cl)cc1CCCCNC(=O)[C@@H](O)[C@@H](O)[C@H](O)[C@@H](O)CN1CCOCC1 (stereo in doubt) [Compound I-176, (2S,3S,4R,5S)-N-{4-[5-chloro-4-({1-[4-(2-cyclopropoxyphenyl)pyridin-3-yl]cyclopropoxy}methyl)-2-methylphenyl]butyl}-2,3,4,5-tetrahydroxy-6-(morpholin-4-yl)hexanamide]	< 100
Cc1cc(COC2(c3cnccc3-c3ccccc3OC3CC3)CC2)c(C)cc1CCCCC(=O)NC[C@H](O)[C@@H](O)[C@H](O)[C@H](O)CO [Compound I-229, 5-[4-({1-[4-(2-cyclopropoxyphenyl)pyridin-3-yl]cyclopropoxy}methyl)-2,5-dimethylphenyl]-N-[(2S,3R,4R,5R)-2,3,4,5,6-pentahydroxyhexyl]pentanamide]	< 100
CN(C)C(=O)CCN(C[C@H](O)[C@@H](O)[C@H](O)[C@H](O)CO)C(=O)CCCSc1ccc(Cl)c(COC2(c3cnccc3-c3ccccc3OC3CC3)CC2)c1 [Compound I-671, 4-{[4-chloro-3-({1-[4-(2-cyclopropoxyphenyl)pyridin-3-yl]cyclopropoxy}methyl)phenyl]sulfanyl}-N-[2-(dimethylcarbamoyl)ethyl]-N-[(2S,3R,4R,5R)-2,3,4,5,6-pentahydroxyhexyl]butanamide]	126 to 1000
O=C(NCCCCCSc1ccc(Cl)c(COC2(c3cnccc3-c3ccccc3OC3CC3)CC2)c1)[C@@H](O)[C@@H](O)[C@H](O)[C@@H](O)CO [Compound I-611, (2S,3S,4R,5S)-N-(5-{[4-chloro-3-({1-[4-(2-cyclopropoxyphenyl)pyridin-3-yl]cyclopropoxy}methyl)phenyl]sulfanyl}pentyl)-2,3,4,5,6-pentahydroxyhexanamide]	< 100
O=C(CCCCCNS(=O)(=O)c1ccc(Cl)c(COC2(c3cnccc3-c3ccccc3OC3CC3)CC2)c1)NC[C@H](O)[C@@H](O)[C@H](O)[C@H](O)CO [Compound I-431, 6-[4-chloro-3-({1-[4-(2-cyclopropoxyphenyl)pyridin-3-yl]cyclopropoxy}methyl)benzenesulfonamido]-N-[(2S,3R,4R,5R)-2,3,4,5,6-pentahydroxyhexyl]hexanamide]	< 100
O=C(NCCCCOc1ccc(Cl)c(COC2(c3cnccc3-c3ccccc3OC3CC3)CC2)c1)NC[C@H](O)[C@@H](O)[C@H](O)[C@H](O)CO [Compound I-755, 1-(4-(4-chloro-3-((1-(4-(2-cyclopropoxyphenyl)pyridin-3-yl)cyclopropoxy)methyl)phenoxy)butyl)-3-((2S,3R,4R,5R)-2,3,4,5,6-pentahydroxyhexyl)urea]	126 to 1000
O=C([C@@H](O)[C@@H](O)[C@H](O)[C@@H](O)CO)N(CCCSc1ccc(Cl)c(COC2(c3cnccc3-c3ccccc3OC3CC3)CC2)c1)CC1CCOCC1 [Compound I-522, (2S,3S,4R,5S)-N-(3-{[4-chloro-3-({1-[4-(2-cyclopropoxyphenyl)pyridin-3-yl]cyclopropoxy}methyl)phenyl]sulfanyl}propyl)-2,3,4,5,6-pentahydroxy-N-(oxan-4-ylmethyl)hexanamide]	126 to 1000
